In brackets after ≈: the same amount, converted by molar mass. Like-named read-outs stand apart in the source and are kept apart here.
Legend:
P. aeruginosa GC 2214 = test: MIC, broth microdilution; details: Pseudomonas aeruginosa
E. faecalis GC 4555 = test: MIC, broth microdilution; details: Enterococcus faecalis
E. faecalis GC 2242 = test: MIC, broth microdilution; details: Enterococcus faecalis
S. pneumoniae* GC 4465 = test: MIC, broth microdilution; details: Streptococcus pneumoniae
S. aureus GC 4536 = test: MIC, broth microdilution; details: Staphylococcus aureus
S. pneumoniae+ GC 4465 = test: MIC, broth microdilution; details: Streptococcus pneumoniae
E. coli GC 2231 = test: MIC, broth microdilution; details: Escherichia coli
E. faecalis GC 2265 = test: MIC, broth microdilution; details: Enterococcus faecalis
E. coli GC 2236 = test: MIC, broth microdilution; details: Escherichia coli
E. faecium GC 2243 = test: MIC, broth microdilution; details: Enterococcus faecium
S. aureus GC 1131 = test: MIC, broth microdilution; details: Staphylococcus aureus
Protocol: Antimicrobial susceptibility testing. The in vitro activities of the antibiotics are determined by the broth microdilution method as recommended by the National Committee for Clinical Laboratory Standards (NCCLS) (1). Mueller-Hinton II broth (MHBII)(BBL Cockeysville, Md.) is the medium employed in the testing procedures. Microtiter plates containing serial dilutions of each antimicrobial agent are inoculated with each organism to yield the appropriate density (10^5 CFU/ml) in a 100 μl final volume. The plates are incubated for 18-22 hours at 35° C. in ambient air.
Representative compounds were first incubated in mouse serum for an hour prior to the in vitro testing against a panel of selected gram-positive and gram-negative bacteria strains. All compounds were also pre-incubated in water for an hour prior to testing as control.

c. albicans GC 3066 = test: MIC, broth microdilution
S. epidermidis GC 4935 = test: MIC, broth microdilution; details: Staphylococcus epidermidis
Staph. = test: Range of MIC for Staph. strains, including MRSA; details: Staphylococcus aureus
Staph. aureus Smith = test: In vivo activity (oral, iv; ED50) against Staph. aureus Smith in mice
Protocol: Representative examples of compounds of Formula I were tested for the oral efficacy using S. aureus Smith in mice.

E. coli GC 2232 = test: MIC, broth microdilution; details: Escherichia coli
E. coli GC 2272 = test: MIC, broth microdilution; details: Escherichia coli
S. aureus GC 2216 = test: MIC, broth microdilution; details: Staphylococcus aureus
E. coli = test: Range of MIC for E. coli strains; details: Escherichia coli
E. faecalis GC 2267 = test: MIC, broth microdilution; details: Enterococcus faecalis
[1] = read-out: MINIMAL INHIBITORY CONCENTRATION MIC, pre-incubated in Human Serum
[2] = read-out: MINIMAL INHIBITORY CONCENTRATION MIC, pre-incubated in Mouse Serum
[3] = read-out: MINIMAL INHIBITORY CONCENTRATION MIC, pre-incubated in Water

With Cc1ccc(C(=O)OCOC(=O)N(CC(=O)Nc2cc(N(C)C)c3c(c2O)C(=O)C2=C(O)[C@]4(O)C(=O)C(C(N)=O)=C(O)[C@@H](N(C)C)[C@@H]4C[C@@H]2C3)C(C)(C)C)cc1 [Example 47] the MIC (P. aeruginosa GC 2214; GC2214, read-out: MINIMAL INHIBITORY CONCENTRATION MIC, pre-incubated in Human Serum) was > 64 µg/mL, the MIC (P. aeruginosa GC 2214; GC2214, read-out: MINIMAL INHIBITORY CONCENTRATION MIC, pre-incubated in Mouse Serum) was 32 µg/mL (≈ 41.1 µM) and the MIC (P. aeruginosa GC 2214; GC2214, read-out: MINIMAL INHIBITORY CONCENTRATION MIC, pre-incubated in Water) was > 64 µg/mL. For the same molecule, the MIC (E. faecalis GC 4555; GC4555, read-out: MINIMAL INHIBITORY CONCENTRATION MIC, pre-incubated in Human Serum) was 4 µg/mL (≈ 5.14 µM), the MIC (E. faecalis GC 4555; GC4555, read-out: MINIMAL INHIBITORY CONCENTRATION MIC, pre-incubated in Mouse Serum) was 1 µg/mL (≈ 1.29 µM) and the MIC (E. faecalis GC 4555; GC4555, read-out: MINIMAL INHIBITORY CONCENTRATION MIC, pre-incubated in Water) was 4 µg/mL (≈ 5.14 µM). The MIC (E. faecalis GC 2242; GC2242, read-out: MINIMAL INHIBITORY CONCENTRATION MIC, pre-incubated in Human Serum) was 4 µg/mL (≈ 5.14 µM), the MIC (E. faecalis GC 2242; GC2242, read-out: MINIMAL INHIBITORY CONCENTRATION MIC, pre-incubated in Mouse Serum) was 1 µg/mL (≈ 1.29 µM) and the MIC (E. faecalis GC 2242; GC2242, read-out: MINIMAL INHIBITORY CONCENTRATION MIC, pre-incubated in Water) was 4 µg/mL (≈ 5.14 µM). For the same molecule, the MIC (S. pneumoniae* GC 4465; [1]) was 0.5 µg/mL (≈ 0.643 µM), the MIC (S. pneumoniae* GC 4465; [2]) was 0.25 µg/mL (≈ 0.321 µM) and the MIC (S. pneumoniae* GC 4465; [3]) was 0.5 µg/mL (≈ 0.643 µM). It also gave an MIC (S. aureus GC 4536; GC4536, read-out: MINIMAL INHIBITORY CONCENTRATION MIC, pre-incubated in Human Serum) of 1 µg/mL (≈ 1.29 µM), an MIC (S. aureus GC 4536; GC4536, read-out: MINIMAL INHIBITORY CONCENTRATION MIC, pre-incubated in Mouse Serum) of 1 µg/mL (≈ 1.29 µM) and an MIC (S. aureus GC 4536; GC4536, read-out: MINIMAL INHIBITORY CONCENTRATION MIC, pre-incubated in Water) of 4 µg/mL (≈ 5.14 µM). For the same molecule, the MIC (S. pneumoniae+ GC 4465; [1]) was 2 µg/mL (≈ 2.57 µM), the MIC (S. pneumoniae+ GC 4465; [2]) was 2 µg/mL (≈ 2.57 µM) and the MIC (S. pneumoniae+ GC 4465; [3]) was 4 µg/mL (≈ 5.14 µM). The MIC (E. coli GC 2231; GC2231, read-out: MINIMAL INHIBITORY CONCENTRATION MIC, pre-incubated in Human Serum) was 32 µg/mL (≈ 41.1 µM), the MIC (E. coli GC 2231; GC2231, read-out: MINIMAL INHIBITORY CONCENTRATION MIC, pre-incubated in Mouse Serum) was 1 µg/mL (≈ 1.29 µM) and the MIC (E. coli GC 2231; GC2231, read-out: MINIMAL INHIBITORY CONCENTRATION MIC, pre-incubated in Water) was > 64 µg/mL. The MIC (E. faecalis GC 2265; GC2265, read-out: MINIMAL INHIBITORY CONCENTRATION MIC, pre-incubated in Human Serum) was 4 µg/mL (≈ 5.14 µM), the MIC (E. faecalis GC 2265; GC2265, read-out: MINIMAL INHIBITORY CONCENTRATION MIC, pre-incubated in Mouse Serum) was 1 µg/mL (≈ 1.29 µM) and the MIC (E. faecalis GC 2265; GC2265, read-out: MINIMAL INHIBITORY CONCENTRATION MIC, pre-incubated in Water) was 4 µg/mL (≈ 5.14 µM). The MIC (E. coli GC 2236; GC2236, read-out: MINIMAL INHIBITORY CONCENTRATION MIC, pre-incubated in Human Serum) was 32 µg/mL (≈ 41.1 µM), the MIC (E. coli GC 2236; GC2236, read-out: MINIMAL INHIBITORY CONCENTRATION MIC, pre-incubated in Mouse Serum) was 1 µg/mL (≈ 1.29 µM) and the MIC (E. coli GC 2236; GC2236, read-out: MINIMAL INHIBITORY CONCENTRATION MIC, pre-incubated in Water) was > 64 µg/mL. It also gave an MIC (E. faecium GC 2243; GC2243, read-out: MINIMAL INHIBITORY CONCENTRATION MIC, pre-incubated in Human Serum) of 2 µg/mL (≈ 2.57 µM), an MIC (E. faecium GC 2243; GC2243, read-out: MINIMAL INHIBITORY CONCENTRATION MIC, pre-incubated in Mouse Serum) of 0.5 µg/mL (≈ 0.643 µM) and an MIC (E. faecium GC 2243; GC2243, read-out: MINIMAL INHIBITORY CONCENTRATION MIC, pre-incubated in Water) of 2 µg/mL (≈ 2.57 µM). The MIC (S. aureus GC 1131; GC1131, read-out: MINIMAL INHIBITORY CONCENTRATION MIC, pre-incubated in Human Serum) was 2 µg/mL (≈ 2.57 µM), the MIC (S. aureus GC 1131; GC1131, read-out: MINIMAL INHIBITORY CONCENTRATION MIC, pre-incubated in Mouse Serum) was 1 µg/mL (≈ 1.29 µM) and the MIC (S. aureus GC 1131; GC1131, read-out: MINIMAL INHIBITORY CONCENTRATION MIC, pre-incubated in Water) was 2 µg/mL (≈ 2.57 µM). For the same molecule, the MIC (c. albicans GC 3066; Candida albicans, GC3066, read-out: MINIMAL INHIBITORY CONCENTRATION MIC) was > 64 µg/mL, the “MINIMAL INHIBITORY CONCENTRATION MIC” value (c. albicans GC 3066; pre-incubated in Human Serum) was >64 UG/ML and the “MINIMAL INHIBITORY CONCENTRATION MIC” value (c. albicans GC 3066; pre-incubated in Mouse Serum) was >64 UG/ML. The MIC (S. epidermidis GC 4935; GC4935, read-out: MINIMAL INHIBITORY CONCENTRATION MIC, pre-incubated in Human Serum) was 4 µg/mL (≈ 5.14 µM), the MIC (S. epidermidis GC 4935; GC4935, read-out: MINIMAL INHIBITORY CONCENTRATION MIC, pre-incubated in Mouse Serum) was 2 µg/mL (≈ 2.57 µM) and the MIC (S. epidermidis GC 4935; GC4935, read-out: MINIMAL INHIBITORY CONCENTRATION MIC, pre-incubated in Water) was 4 µg/mL (≈ 5.14 µM). The MIC (Staph.; MRSA, read-out: Range of MIC, Staph (Mouse Serum)) was 1 to 2 µg/mL (≈ 1.29 to 2.57 µM), the MIC (Staph.; MRSA, read-out: Range of MIC, Staph (Water)) was 2 to 4 µg/mL (≈ 2.57 to 5.14 µM) and the MIC (Staph.; read-out: Minimum inhibitory concentration (MIC), Staph (Human Serum)) was 1 to 4 µg/mL (≈ 1.29 to 5.14 µM). For the same molecule, the MIC (Staph.; read-out: Minimum inhibitory concentration (MIC), Staph (Water)) was 2 to 4 µg/mL (≈ 2.57 to 5.14 µM), the ED50 (Staph. aureus Smith; Staphylococcus aureus, in Mus musculus, iv, read-out: ED50 SIV (Staph aureus Smith)) was 1.2 mg/kg and the ED50 (Staph. aureus Smith; Staphylococcus aureus, in Mus musculus, po, read-out: ED50 SOD (Staph aureus Smith)) was 14 mg/kg. For the same molecule, the ED50 (Staph. aureus Smith; Staphylococcus aureus, in Mus musculus, po, read-out: ED50 Staph Smith SOD) was 14 mg/kg, the ED50 (Staph. aureus Smith; iv, read-out: ED50 Staph Smith SIV) was 1.2 mg/kg and the MIC (E. coli GC 2232; GC2232, read-out: MINIMAL INHIBITORY CONCENTRATION MIC, pre-incubated in Human Serum) was 16 µg/mL (≈ 20.6 µM). For the same molecule, the MIC (E. coli GC 2232; GC2232, read-out: MINIMAL INHIBITORY CONCENTRATION MIC, pre-incubated in Mouse Serum) was 1 µg/mL (≈ 1.29 µM), the MIC (E. coli GC 2232; GC2232, read-out: MINIMAL INHIBITORY CONCENTRATION MIC, pre-incubated in Water) was > 64 µg/mL and the MIC (E. coli GC 2272; GC2272, read-out: MINIMAL INHIBITORY CONCENTRATION MIC, pre-incubated in Human Serum) was 16 µg/mL (≈ 20.6 µM). For the same molecule, the MIC (E. coli GC 2272; GC2272, read-out: MINIMAL INHIBITORY CONCENTRATION MIC, pre-incubated in Mouse Serum) was 1 µg/mL (≈ 1.29 µM), the MIC (E. coli GC 2272; GC2272, read-out: MINIMAL INHIBITORY CONCENTRATION MIC, pre-incubated in Water) was > 64 µg/mL and the MIC (S. aureus GC 2216; GC2216, read-out: MINIMAL INHIBITORY CONCENTRATION MIC, pre-incubated in Human Serum) was 1 µg/mL (≈ 1.29 µM). For the same molecule, the MIC (S. aureus GC 2216; GC2216, read-out: MINIMAL INHIBITORY CONCENTRATION MIC, pre-incubated in Mouse Serum) was 1 µg/mL (≈ 1.29 µM), the MIC (S. aureus GC 2216; GC2216, read-out: MINIMAL INHIBITORY CONCENTRATION MIC, pre-incubated in Water) was 2 µg/mL (≈ 2.57 µM) and the MIC (E. coli; 20 h, read-out: Range of MIC, E. coli (Mouse Serum)) was 0.5 to 2 µg/mL (≈ 0.643 to 2.57 µM). For the same molecule, the MIC (E. coli; read-out: Minimum inhibitory concentration (MIC), E. coli (water)) was > 64 µg/mL, the MIC (E. coli; read-out: Range of MIC, E. coli (Water)) was > 64 µg/mL and the MIC (E. faecalis GC 2267; GC2267, read-out: MINIMAL INHIBITORY CONCENTRATION MIC, pre-incubated in Human Serum) was 4 µg/mL (≈ 5.14 µM). For the same molecule, the MIC (E. faecalis GC 2267; GC2267, read-out: MINIMAL INHIBITORY CONCENTRATION MIC, pre-incubated in Mouse Serum) was 1 µg/mL (≈ 1.29 µM) and the MIC (E. faecalis GC 2267; GC2267, read-out: MINIMAL INHIBITORY CONCENTRATION MIC, pre-incubated in Water) was 4 µg/mL (≈ 5.14 µM).

— patent US20070049564A1 (Wyeth, priority 2005, published 2007)
